Measured values published in patent US9883691B2, “Food and beverage products containing 1,3-propanediol and methods of modifying flavor release using 1,3-propanediol” (Kraft Foods Group Brands LLC, priority 2012, dated 2018).

Columns and labels:
Assay type in all cases: physicochemical
[1] = PTR-MS real-time headspace release, watermelon flavor model in water (Example 1); set-up: Sample A (PG) Mean / Sample B (1,3-propanediol) Mean: unit not given here; settings: for Sample B (1,3-propanediol) Mean / Sample A (PG) Mean: PTR-MS headspace, diluted in water, 90 minutes equilibration, mean of three; for Sample B (1,3-propanediol) Mean: watermelon flavor concentrate in 1,3-propanediol; for Sample A (PG) Mean: watermelon flavor concentrate in propylene glycol; for Percent Release Difference: Sample B (1,3-propanediol) relative to Sample A (PG)
Protocol: The impact of 1,3-propanediol on the release of flavor compounds can be analyzed by Proton Transfer Reaction Mass Spectrometry (PTR-MS; model TOF-8000 from Ionicon Analytik Inc.), where real-time headspace release of volatiles is measured. A sampling apparatus is needed in conjunction with the PTR-MS inlet to prevent variations caused by headspace kinetics. By one exemplary approach, the sampling apparatus includes a 4 ounce sample vessel equipped with a 2-hole lid which may be sealed by an adhesive film to allow equilibration. […]. The holes are equal sized (˜2 mm diameter) and match the outer diameter of the PTR-MS inlet line. The flow of the dilution gas into the vessel is regulated by the vacuum and proportional valve of the PTR-MS inlet system. The sample vessel has a base diameter of 47 mm and is 45 mm high, of which 8 mm of height is occupied by the sample in the vessel in these experiments. The 2 holes in the lid are equidistant from the edge of the vessel (˜20 mm) and about 30 mm from each other. The PTR-MS inlet is braced by clamps in a fixed position vertically above the laboratory bench (˜55 mm) and a silicone rubber depth gauge is affixed to the PTR-MS inlet tubing and set at 18 mm. The PTR-MS inlet is thus consistently oriented in a vertical position 18 mm below the inside lid of the vessel and 19 mm above the sample in the vessel. The sample vessel is then held in place during sampling according to the depth gauge on the inlet line and the vessel is subsequently supported on the bench by a 10 mm plastic spacer.
15 grams of the sample to be tested (e.g., food or beverage product containing 1,3-propanediol) are added to the vessel. The vessel is sealed and allowed to equilibrate at room temperature (˜22° C.) for 90 minutes. At the time of sampling, the seal is removed from both the sampling hole and the dilution gas hole in the lid and the vessel is immediately affixed to the PTR-MS inlet via the sampling hole. The real-time released flavor is measured from the headspace of the sample vessel for two minutes (according to the conditions listed in Table 1 below). A comparative sample is prepared that is otherwise identical to the test sample but contains propylene glycol or water instead of 1,3-propanediol. The comparative sample is then analyzed in triplicate by PTR-MS using the above-described procedure. The data can be analyzed using PTR-MS Viewer, Version 3.0.0.101 (Ionicon Analytik G.m.b.H). The point of maximum intensity for each compound of interest can be determined and recorded according to the PTR-MS Viewer software. The maximum intensity in counts over the timescale for each compound of interest can be used for data analysis as it reflects the static equilibrium headspace concentration in the system at the moment of seal removal. Due to the necessity of a dilution gas, the volatile concentration decreases over time as the compounds of interest re-equilibrate to a state of dynamic equilibrium in the headspace.
[…]. Sample A was prepared with 20 grams watermelon flavor concentrate and 80 grams propylene glycol. Sample B was prepared with 20 grams watermelon flavor concentrate and 80 grams 1,3-propanediol. Each of the samples was further diluted by adding 0.08 grams of each diluted concentrate to 99.92 grams water to provide a flavor water solution.
The diluted samples were analyzed by Proton Transfer Reaction Mass Spectrometry (PTR-MS; model TOF-8000 from Ionicon Analytik Inc.) for real-time headspace release volatiles measurement. Samples were analyzed in triplicate. […]. […].

[2] = PTR-MS headspace release with various non-aqueous liquids (diols) at 0.05:100 (Example 3); settings: ratio 0.05:100; for PTR-MS headspace release in 1,3-butanediol: non-aqueous liquid 1,3-butanediol; for PTR-MS headspace release in 1,3-butanediol / PTR-MS headspace release in 1,3-propanediol / PTR-MS headspace release in 1,4-butanediol / PTR-MS headspace release in 1,7-heptanediol / PTR-MS headspace release in Propylene glycol: diluted in water; for PTR-MS headspace release in 1,3-propanediol: non-aqueous liquid 1,3-propanediol; for PTR-MS headspace release in 1,4-butanediol: non-aqueous liquid 1,4-butanediol; for PTR-MS headspace release in 1,7-heptanediol: non-aqueous liquid 1,7-heptanediol; for PTR-MS headspace release in Propylene glycol: non-aqueous liquid propylene glycol
Protocol: […]. The flavoring was then diluted in water for analysis. The final concentration of each compound was held constant at 8 ppm except furfuryl mercaptan was included at 1.6 ppm to maintain a constant flavor level in the resulting beverage while the non-aqueous liquid varied but the ratio of each compound to non-aqueous liquid was held constant at 0.05:100. A variety of non-aqueous liquids were evaluated, including 1,4-butandiol; 1,7-heptandiol; 1,3-butandiol, propylene glycol, and 1,3-propanediol.
Samples were analyzed by PTR-MS as described in Example 1.
Percent suppression was calculated by the following formula: (I1-3-diol−Ialternate diol)/Ialternate diol×100.

[3] = PTR-MS headspace release in neat solvent, solvent/solvent experiment (Example 5); set-up: key to Release Differences: “Z” indicates that 1,3-propanediol had higher equilibrium maximum (meaning more of the flavor was released in 1,3-propanediol); “P” indicates that propylene glycol had higher equilibrium maximum; “-” indicates no statistical difference (95% significance) between the two samples; settings: 1.5 hrs equilibration; for Release Differences: 1,3-propanediol versus propylene glycol as sole solvent, 95% significance
Protocol: […]. Then the head space was analyzed as described above.
0.86 grams of the concentrate was added to 100 grams of either propylene glycol or 1,3-propanediol to provide a 1,3-propanediol diluted concentrate or propylene glycol diluted concentrate. The diluted concentrates were then further diluted as outlined in Table 10 below.
A 15 gram sample was weighed into a 4 oz vessel and analyzed at 1.5 hrs. of equilibration time as described in the method of Example 4.

[4] = PTR-MS headspace release at various flavor compound to 1,3-propanediol or PG ratios (Example 2); settings: for Percent Suppression by 1,3-propanediol: (IZ−IPG)/IPG×100; for effect of 1,3-propanediol on release: flavor/1,3-propanediol ratio of 0.05:100; for release suppressed in the presence of 1,3-propanediol: 10% cut-off for significant difference, relative to PG
Protocol: The compounds listed below in Table 3 were added together to provide a liquid flavoring to analyze the role, if any, of the amount of 1,3-propanediol on flavor release. […] The amount of each flavor compound in the beverage was held constant at 8 ppm except furfuryl mercaptan was included at 1.6 ppm while the amount of propylene glycol or 1,3-propanediol varied.
The percent suppression was calculated using the following formula: (IZ−IPG)/IPG×100, where I is peak height, “Z” is 1,3-propanediol and “PG” is propylene glycol.

[5] = ratio 0.005:100, negative = suppressed vs PG

Row | SMILES | Sample B (1,3-propanediol) Mean [1] | Sample A (PG) Mean [1] | Percent Release Difference [1] [%] | PTR-MS headspace release in 1,3-butanediol [2] | PTR-MS headspace release in 1,3-propanediol [2] | PTR-MS headspace release in 1,4-butanediol [2] | PTR-MS headspace release in 1,7-heptanediol [2] | PTR-MS headspace release in Propylene glycol [2] | also measured
1 | OCCCO [1,3-propanediol] |  |  |  |  |  |  |  |  | flavor retention compared to use of propylene glycol ([1]; watermelon flavor model, Table 2): generally resulted in increased flavor retention
2 | OCCCCCCCO [1,7-heptandiol, reference compound] |  |  |  |  |  |  |  |  | flavor release with the non-aqueous liquid relative to comparative diol [2]: faster release than propylene glycol
3 | CCC(C)COC(C)=O (stereo not shown) [2-methylbutyl acetate] | 4.27 | 5.30 | −19.5 |  |  |  |  |  | 
4 | C/C=C\C(=O)C1C(C)=CCCC1(C)C (stereo not drawn) [Alpha damascone] | 0.57 | 0.82 | −30.6 |  |  |  |  |  | 
5 | CCCCOC(=O)CCC [Butyl butyrate] |  |  |  | 27.9 | 13.57 | 49.4 | 46.4 | 10.50 | Percent suppression by 1,3-butanediol relative to 1,4-butanediol [2]: −77.2%; Release Differences [3]: Z; Percent Suppression by 1,3-propanediol [4, 5]: −3.3%; Percent Suppression by 1,3-propanediol ([4]; ratio 0.05:100): 29.2%; Percent Suppression by 1,3-propanediol ([4]; ratio 5:100): −20.5%; Percent Suppression by 1,3-propanediol ([4]; ratio 15:100): −8.2%
6 | CCCC(=O)O [Butyric acid] |  |  |  | 91.7 | 30.25 | 143.8 | 140.0 | 28.00 | Percent suppression by 1,3-butanediol relative to 1,4-butanediol [2]: −56.8%; effect of 1,3-propanediol on release [4]: minimal effect; Percent Suppression by 1,3-propanediol [4, 5]: 7.5%; Percent Suppression by 1,3-propanediol ([4]; ratio 0.05:100): 8.0%; Percent Suppression by 1,3-propanediol ([4]; ratio 5:100): −18.4%; Percent Suppression by 1,3-propanediol ([4]; ratio 15:100): −6.0%
7 | CC(C=O)Cc1ccc(C(C)C)cc1 (stereo not shown) [Cyclamen aldehyde] | 0.36 | 0.40 | −10.0 |  |  |  |  |  | 
8 | CCCCCCCCCC(=O)O [Decanoic acid] |  |  |  | 0.6 | 0.20 | 1.4 | 1.0 | 0.25 | effect of 1,3-propanediol on release [4]: minimal effect
9 | O=CCc1ccccc1 [Phenyl acetaldehyde] | 0.78 | 0.80 | −2.5 |  |  |  |  |  | 

Second part, led by results:

Row | Sample B (1,3-propanediol) Mean [1] | Sample A (PG) Mean [1] | Percent Release Difference [1] [%] | PTR-MS headspace release in 1,3-butanediol [2] | PTR-MS headspace release in 1,3-propanediol [2] | PTR-MS headspace release in 1,4-butanediol [2] | PTR-MS headspace release in 1,7-heptanediol [2] | PTR-MS headspace release in Propylene glycol [2] | SMILES | also measured
10 | 24.50 | 22.17 | 10.5 | 20.7 | 18.60 | 27.5 | 24.5 | 28.52 | CCO [Ethanol] | release suppressed in the presence of 1,3-propanediol [4]: suppressed; effect of 1,3-propanediol on release [4]: significant suppression effect; Percent Suppression by 1,3-propanediol [4, 5]: 11.9%; Percent Suppression by 1,3-propanediol ([4]; ratio 0.05:100): −34.8%; Percent Suppression by 1,3-propanediol ([4]; ratio 5:100): −12.1%; Percent Suppression by 1,3-propanediol ([4]; ratio 15:100): −0.9%
11 | 1410 | 1797 | −21.5 |  |  |  |  |  | CCOC(C)=O [Ethyl acetate] | 
12 | 1.25 | 1.25 | 0.0 |  |  |  |  |  | CCc1occc(=O)c1O [Ethyl maltol] | 
13 |  |  |  | 0.3 | 0.20 | 0.5 | 0.3 | 0.37 | CCCCCCO [Hexanol] | Percent suppression by 1,3-butanediol relative to 1,4-butanediol [2]: −50.0%; Release Differences [3]: Z; release in 1,3-propanediol versus propylene glycol, solvent/solvent [3]: released faster in 1,3-propanediol; release suppressed in the presence of 1,3-propanediol [4]: suppressed; Percent Suppression by 1,3-propanediol [4, 5]: −3.6%; Percent Suppression by 1,3-propanediol ([4]; ratio 0.05:100): −45.9%; Percent Suppression by 1,3-propanediol ([4]; ratio 5:100): −9.8%; Percent Suppression by 1,3-propanediol ([4]; ratio 15:100): −20.0%
14 | 1.32 | 0.95 | 38.8 |  |  |  |  |  | CCCCCCC(C=O)=Cc1ccccc1 [Hexyl cinnamic aldehyde] | 
15 |  |  |  | 40.9 | 12.35 | 62.5 | 63.5 | 12.51 | CC(C)CC=O [Isovaleraldehyde] | Percent suppression by 1,3-butanediol relative to 1,4-butanediol [2]: −53.0%; Percent Suppression by 1,3-propanediol [4, 5]: 3.7%; Percent Suppression by 1,3-propanediol ([4]; ratio 0.05:100): −1.3%; Percent Suppression by 1,3-propanediol ([4]; ratio 5:100): −22.2%; Percent Suppression by 1,3-propanediol ([4]; ratio 15:100): −2.6%
16 | 0.04 | 0.07 | −48.1 |  |  |  |  |  | CC(=O)CCc1ccc(O)cc1 [Raspberry ketone] | 
17 | 0.86 | 1.06 | −18.3 |  |  |  |  |  | CCC/C=C/C(=O)O [Trans-2-hexenoic acid] | 
18 | 0.05 | 0.05 | 3.4 |  |  |  |  |  | COc1cc(C=O)ccc1O [Vanillin] | 
